Consider eleven molecules from US20250296938A1, “Compounds that Interact with the Ras Superfamily for the Treatment of Cancers, Inflammatory Diseases, Rasopathies, and Fibrotic Disease” (SHY Therapeutics, LLC, priority 2018, published 2025).

SMILES strings stand for the structures. Where two headings read alike, the source gives them in different places.

What all share (assay): Ras GTP binding domain inhibition assay (Cy3-GTP/Cy5-GTP competition)
In one assay the target is T1, KRas G12D mutant (Homo sapiens, UniProt P01116, G12D).
T1 construct: fused on or other part: His tag, used for capture on nickel-coated plates
An outline of the steps:
(§1)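 Ni-plate immobilised His-Ras, overnight 4 °C; cpd 20 μM (or dilution series for IC50), 1% DMSO, 3 h RT; optional His-Sos […] last hour; Cy3- or Cy5-GTP 100 nM, 45 min RT; 3× wash; bound fluorescence read.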

A further assay deals with Rac-1 (Homo sapiens, UniProt P63000). An outline of the steps: (§2)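 Compounds tested at 20 μM or in serial dilution for IC50 against nickel-captured His-tagged GTPase, 3 hours at room temperature, with or without His-Sos GEF added for last hour. Fluorescent GTP then added at 100 nM for 45 minutes; wells washed, bound label measured by fluorescence.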
The next assay has as its target Rho-A (Homo sapiens, UniProt P61586). An outline of the steps: as §2
The test system of a further assay is KRas G12C mutant. Also on record: species or system human. As to conditions: 20 μM; for KRas G12C mutant + SOS: % inh.: with SOS; for KRas G12C mutant: % inh.: without SOS. The method, boiled down:
as §1

The subject of another assay is KRas Q61H mutant. Also on record: species or system human. As to conditions: 20 μM; for KRas Q61H mutant + SOS: % inh.: with SOS; for KRas Q61H mutant: % inh.: without SOS. An outline of the steps: as §1
Another assay deals with KRas wild type. Further details: species or system human. As to conditions: 20 μM; for KRas wild type + SOS: % inh.: with SOS; for KRas wild type: % inh.: without SOS. An outline of the steps: as §1
Setting [1] is: at 20 μM, with SOS, read-out: KRas G12D mutant + SOS: % inh.
Where [2] appears, read: at 20 μM, without SOS, read-out: KRas G12D mutant: % inh.
The mark [3] stands for this setting: with SOS, read-out: Rac-1 + SOS: % inh.
[4] abbreviates: without SOS, read-out: Rac-1: % inh.
Setting [5] is: with SOS, read-out: Rho-A + SOS: % inh.
Setting [6] is: without SOS, read-out: Rho-A: % inh.
Setting [7] is: 20 μM, with SOS, read-out: KRas G-12D mutant + SOS: % inh.
Where [8] appears, read: 20 μM, without SOS, read-out: KRas G12D mutant: % inh.

`COc1c(O)nc(-c2ccccn2)nc1Oc1ccccc1` [drawing 948]: the inhibition at 20 µM at KRas G12D mutant (setting [1]) lay in the range of 26 to 50%; on KRas G12D mutant (setting [2]) it was 26 to 50%; on Rac-1 (setting [3]) it was 76 to 100%; at Rac-1 (setting [4]), 76 to 100%; on Rho-A (setting [5]) it was 76 to 100%; on Rho-A (setting [6]), 51 to 75%.
Take `O=C(NC1CCC1)c1nc(-c2ccccn2)nc(O)c1O` [drawing 944]: the inhibition at 20 µM at KRas G12D mutant (setting [1]) lay within 26 to 50%; at KRas G12D mutant (setting [2]), 51 to 75%; at Rac-1 (setting [3]), 76 to 100%; at Rac-1 (setting [4]), 76 to 100%; on Rho-A (setting [5]), 76 to 100%; on Rho-A (setting [6]), 51 to 75%.
`CO[C@H]1C[C@@H](Nc2nc(-c3nccn3C)nc3sc(-c4ccn(C)n4)c(C)c23)C1` [drawing 1049]: the inhibition at 20 µM lay in the range of 51 to 75% at KRas G12D mutant (setting [1]); 51 to 75% at KRas G12D mutant (setting [2]); 51 to 75% on Rac-1 (setting [3]); 51 to 75% at Rac-1 (setting [4]); 76 to 100% at Rho-A (setting [5]); 76 to 100% on Rho-A (setting [6]).
On to `CO[C@H]1CC[C@@H](Nc2nc(-c3ncc[nH]3)nc3sc(-c4ccn(C)n4)c(-c4ccccc4)c23)C1` [drawing 1046], for which the inhibition at 20 µM on KRas G12D mutant (setting [1]) fell in the range of 51 to 75%; on KRas G12D mutant (setting [2]), 26 to 50%; on Rac-1 (setting [3]), 51 to 75%; at Rac-1 (setting [4]), 51 to 75%; on Rho-A (setting [5]), 26 to 50%; on Rho-A (setting [6]), 51 to 75%.
On to `COC(=O)c1nc(-c2nccn2C)nc(O)c1O` [drawing 959], for which the inhibition at 20 µM was in the range of 26 to 50% at KRas G12D mutant (setting [1]); 51 to 75% at KRas G12D mutant (setting [2]); 51 to 75% on Rac-1 (setting [3]); 76 to 100% at Rac-1 (setting [4]); 51 to 75% on Rho-A (setting [5]); 1 to 25% at Rho-A (setting [6]).
Consider `O=C(c1nc(-c2ccccn2)nc(O)c1O)N1CCCC1` [drawing 831], for which, in the assay with KRas G12C mutant, the “KRas G12C mutant + SOS: % inh.” value was “A (1-25% inhibition)” and the “KRas G12C mutant: % inh.” value is “B (26-50% inhibition)”. Also, in the assay with KRas Q61H mutant, the “KRas Q61H mutant + SOS: % inh.” value is reported as “B (26-50% inhibition)” and the “KRas Q61H mutant: % inh.” value is on record as “B (26-50% inhibition)”. In addition, in the assay with KRas wild type, the “KRas wild type + SOS: % inh.” value is given as “A (1-25% inhibition)” and the “KRas wild type: % inh.” value is recorded as “C (51-75% inhibition)”. The inhibition at 20 µM at KRas G12D mutant (setting [7]) was in the range of 1 to 25%. Also, the inhibition at 20 µM on KRas G12D mutant (setting [8]) is 51 to 75%.
Take `COC1CCN(c2nc(-c3nccn3C)nc3sc(-c4ccnn4C)c(-c4ccccc4)c23)C1.Cl` (stereo not drawn): in the assay with KRas G12C mutant, the “KRas G12C mutant + SOS: % inh.” value is on record as “C (51-75% inhibition)” and the “KRas G12C mutant: % inh.” value was “C (51-75% inhibition)”. In the assay with KRas Q61H mutant, the “KRas Q61H mutant + SOS: % inh.” value is recorded as “C (51-75% inhibition)” and the “KRas Q61H mutant: % inh.” value was “B (26-50% inhibition)”. Moreover, in the assay on KRas wild type, the “KRas wild type + SOS: % inh.” value is “C (51-75% inhibition)” and the “KRas wild type: % inh.” value was “B (26-50% inhibition)”. Besides, the inhibition at 20 µM on KRas G12D mutant (setting [7]) lay in the range of 51 to 75%. Also, the inhibition at 20 µM at KRas G12D mutant (setting [8]) is 51 to 75%.
Take `O=C(c1nc(-c2ccccn2)nc(O)c1O)N1CCOCC1` [drawing 800]: in the assay with KRas G12C mutant, the “KRas G12C mutant + SOS: % inh.” value is given as “A (1-25% inhibition)” and the “KRas G12C mutant: % inh.” value is given as “B (26-50% inhibition)”. Further, in the assay with KRas Q61H mutant, the “KRas Q61H mutant + SOS: % inh.” value was “A (1-25% inhibition)” and the “KRas Q61H mutant: % inh.” value was “B (26-50% inhibition)”. For the same molecule, in the assay on KRas wild type, the “KRas wild type + SOS: % inh.” value was “A (1-25% inhibition)” and the “KRas wild type: % inh.” value is “C (51-75% inhibition)”. Also, the inhibition at 20 µM on KRas G12D mutant (setting [7]) fell in the range of 26 to 50%. Further, the inhibition at 20 µM at KRas G12D mutant (setting [8]) was 26 to 50%.
As for `COCCn1ccnc1-c1nc(O)c2scc(-c3ccccn3)c2n1` [drawing 852], in the assay with KRas G12C mutant, the “KRas G12C mutant + SOS: % inh.” value is “D (76-100% inhibition)” and the “KRas G12C mutant: % inh.” value is reported as “C (51-75% inhibition)”. In the assay with KRas Q61H mutant, the “KRas Q61H mutant + SOS: % inh.” value is reported as “C (51-75% inhibition)” and the “KRas Q61H mutant: % inh.” value is on record as “C (51-75% inhibition)”. Moreover, in the assay with KRas wild type, the “KRas wild type + SOS: % inh.” value was “C (51-75% inhibition)” and the “KRas wild type: % inh.” value is reported as “D (76-100% inhibition)”. Also, at KRas G12D mutant (setting [7]), the inhibition at 20 µM is 51 to 75%. The inhibition at 20 µM on KRas G12D mutant (setting [8]) was 76 to 100%.
As for `CCN(CC)C(=O)c1nc(-c2nccn2C)nc(O)c1O` [drawing 829], in the assay with KRas G12C mutant, the “KRas G12C mutant + SOS: % inh.” value is reported as “A (1-25% inhibition)” and the “KRas G12C mutant: % inh.” value is recorded as “A (1-25% inhibition)”. In addition, in the assay on KRas Q61H mutant, the “KRas Q61H mutant + SOS: % inh.” value is “B (26-50% inhibition)” and the “KRas Q61H mutant: % inh.” value is recorded as “B (26-50% inhibition)”. Moreover, in the assay on KRas wild type, the “KRas wild type + SOS: % inh.” value is given as “A (1-25% inhibition)” and the “KRas wild type: % inh.” value is recorded as “B (26-50% inhibition)”. In addition, the inhibition at 20 µM at KRas G12D mutant (setting [7]) fell in the range of 1 to 25%. Moreover, at KRas G12D mutant (setting [8]), the inhibition at 20 µM was in the range of 51 to 75%.
Consider `COc1cccc(-c2sc3nc(-c4nccn4C)nc(N4CCC(OC)C4)c3c2-c2ccccc2)c1F.Cl` (stereo not drawn) [drawing 838], for which, in the assay with KRas G12C mutant, the “KRas G12C mutant + SOS: % inh.” value is given as “D (76-100% inhibition)” and the “KRas G12C mutant: % inh.” value is recorded as “B (26-50% inhibition)”. Moreover, in the assay on KRas Q61H mutant, the “KRas Q61H mutant + SOS: % inh.” value is recorded as “D (76-100% inhibition)” and the “KRas Q61H mutant: % inh.” value is “B (26-50% inhibition)”. In addition, in the assay with KRas wild type, the “KRas wild type + SOS: % inh.” value is on record as “D (76-100% inhibition)” and the “KRas wild type: % inh.” value is recorded as “C (51-75% inhibition)”. In addition, the inhibition at 20 µM at KRas G12D mutant (setting [7]) is 51 to 75%. In addition, the inhibition at 20 µM on KRas G12D mutant (setting [8]) fell in the range of 51 to 75%.
